The values below come from ChEMBL document CHEMBL1201862, “PubChem BioAssay data set” (2004).

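Following 48 hours of exposure in 96-well plates, responses at five concentrations were used to interpolate endpoints linearly. The concentration for 50% growth inhibition is given as GI50.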 Calls of active or inactive are those of the source. Rule as the data show it: active = GI50 up to about 1.1 µM and inactive = higher.

Test systems include U-251; RXF 393; NCI-H226; SF-539; UO-31; SK-OV-3; SW-620; LOX IMVI; HL-60; SR; HCT-15; HCC 2998; CCRF-CEM; CAKI-1; A498; SK-MEL-5.
Holding throughout (assay): growth of human tumour cells (NCI), 48 h

Take `Cc1cc2c(=O)cc(-c3ccncc3)oc2c(C(N)=O)c1C`: the GI50 in the assay on U-251, with RXF 393, with NCI-H226, in the assay on SF-539, in the assay with UO-31 and in the assay on SK-OV-3 was > 100 µM (inactive) throughout. Moreover, the GI50 in the assay on SW-620 was > 100 µM (inactive); in the assay with LOX IMVI it was > 100 µM (inactive); in the assay with HL-60 it was > 100 µM (inactive); in the assay with SR it was > 100 µM (inactive); with HCT-15 it was > 100 µM; with HCC 2998, > 100 µM (inactive). In the assay with CCRF-CEM, the GI50 was > 100 µM (inactive).
`COC(=O)/C(=N\Nc1nnc(C)n1N)C(C#N)c1ccc(Cl)cc1` (configuration not stated): the GI50 in the assay on U-251, in the assay on RXF 393, in the assay with NCI-H226, in the assay on SF-539, in the assay with CAKI-1 and in the assay with UO-31 was > 100 µM (inactive) throughout. Moreover, the GI50 in the assay with SK-OV-3 was > 100 µM (inactive); in the assay with SW-620, > 100 µM (inactive); in the assay on LOX IMVI it was > 100 µM (inactive); in the assay with A498, > 100 µM (inactive); in the assay on HCT-15 it was > 100 µM; with HCC 2998, > 100 µM (inactive).
Turning to `O=C(O)CCc1nn2c(nc1=O)sc1ccc3ccccc3c12`, the GI50 with U-251, in the assay with RXF 393, in the assay on NCI-H226, in the assay with SF-539, in the assay with CAKI-1 and in the assay with UO-31 was > 100 µM (inactive) throughout. The GI50 with SK-OV-3, with SW-620, with LOX IMVI, in the assay on SK-MEL-5, with HL-60 and with SR was > 100 µM (inactive) in each case. Also, the GI50 in the assay on HCT-15 is > 100 µM; with HCC 2998 it was > 100 µM (inactive); in the assay on CCRF-CEM, > 100 µM (inactive).
Take `O=C(CCC(=O)Nc1ccc(Cl)cc1)CC(=O)c1ccc(F)cc1`: the GI50 with NCI-H226, with SF-539, with CAKI-1, with UO-31, in the assay on SK-OV-3 and in the assay with SW-620 was > 100 µM (inactive) each time. Further, the GI50 in the assay with LOX IMVI was > 100 µM (inactive); in the assay with HL-60, > 100 µM (inactive); in the assay with SR, > 100 µM (inactive); in the assay with HCT-15 it was > 100 µM; in the assay with HCC 2998 it was > 100 µM (inactive).
With `O=C(Cc1ccccc1[N+](=O)[O-])C(CO)c1ccccc1[N+](=O)[O-]` (configuration not stated), the GI50 in the assay with U-251 is > 100 µM (inactive); in the assay with RXF 393, 92.5 µM (inactive); in the assay with NCI-H226, 15.6 µM (inactive); with SF-539, > 100 µM (inactive); with CAKI-1, 40.5 µM (inactive); in the assay on UO-31, 19.9 µM (inactive). In addition, the GI50 in the assay on SK-OV-3 was > 100 µM (inactive); in the assay on SW-620, > 100 µM (inactive); in the assay with LOX IMVI, 91.8 µM (inactive); in the assay on SK-MEL-5, 31.7 µM (inactive); with HL-60 it was 67.1 µM (inactive); in the assay on A498, 80.4 µM (inactive). The GI50 with HCT-15 was > 100 µM; in the assay on HCC 2998, > 100 µM (inactive); in the assay on CCRF-CEM it was 71.4 µM (inactive).
As to `C=CCN(N=O)C(=O)N(CCCCC(NC(C)=O)C(=O)NCc1ccccc1)Cc1ccccc1` (configuration not stated), the GI50 with U-251 was 42.5 µM (inactive); in the assay with RXF 393, 21.7 µM (inactive); in the assay on NCI-H226 it was 25.4 µM (inactive); in the assay on SF-539, 38.1 µM (inactive); in the assay with CAKI-1 it was 28.6 µM (inactive); in the assay on UO-31, 29.6 µM (inactive). Further, the GI50 in the assay with SK-OV-3 is > 100 µM (inactive); in the assay on SW-620, 33.8 µM (inactive); in the assay on LOX IMVI, 21.7 µM (inactive); with SK-MEL-5, 15.5 µM (inactive); in the assay on HL-60, 19.8 µM (inactive); with A498, 42.9 µM (inactive). Also, the figures for the GI50 in the assay on HCT-15 and in the assay on CCRF-CEM were 39.9 µM and 28.2 µM (inactive), respectively.
Turning to `N#Cc1ccc(C(C2C(=O)NC(=O)NC2=O)C2C(=O)NC(=O)NC2=O)cc1`, the GI50 in the assay with U-251, in the assay with NCI-H226, in the assay on SF-539, in the assay with CAKI-1, in the assay on UO-31 and in the assay on SK-OV-3 was > 100 µM (inactive) in each case. Further, the GI50 is > 100 µM (inactive) with SW-620; > 100 µM (inactive) in the assay with LOX IMVI; > 100 µM (inactive) in the assay with SK-MEL-5; > 100 µM (inactive) with HL-60; > 100 µM (inactive) in the assay with SR; > 100 µM in the assay on HCT-15. Further, the GI50 with HCC 2998 and in the assay on CCRF-CEM was > 100 µM (inactive) each time.
Turning to `COc1ccc(C(C#N)Cc2cc(OC)c(OC)c(OC)c2)cc1` (configuration not stated), the GI50 in the assay on U-251 was 29.6 µM (inactive); in the assay on RXF 393, 16.4 µM (inactive); in the assay with NCI-H226 it was 94.2 µM (inactive); in the assay on SF-539 it was 23.4 µM (inactive); with CAKI-1, 29.3 µM (inactive); in the assay on UO-31 it was 30.8 µM (inactive). Besides, the GI50 in the assay with SW-620 was 15.7 µM (inactive); in the assay with LOX IMVI it was 28.6 µM (inactive); in the assay on SK-MEL-5, 17.6 µM (inactive); with HL-60, 15 µM (inactive); with A498, 17.4 µM (inactive); in the assay on HCT-15 it was 17.8 µM. In the assay with CCRF-CEM, the GI50 was 28.8 µM (inactive).
Take `O=C1NC(=O)C2C(=O)NC(=O)C1C2(c1ccccc1)c1cc[nH]c1` (configuration not stated): the GI50 is > 100 µM (inactive) with RXF 393; > 100 µM (inactive) in the assay with NCI-H226; > 100 µM (inactive) with SF-539; > 100 µM (inactive) in the assay with CAKI-1; 74.6 µM (inactive) in the assay with UO-31; > 100 µM (inactive) with SK-OV-3. Besides, the GI50 in the assay on SW-620 was > 100 µM (inactive); with LOX IMVI, > 100 µM (inactive); with SK-MEL-5, > 100 µM (inactive); in the assay with HL-60 it was > 100 µM (inactive); in the assay on A498, > 100 µM (inactive); in the assay on HCT-15, > 100 µM. Besides, the GI50 in the assay with HCC 2998 and in the assay with CCRF-CEM was > 100 µM (inactive) each time.
Regarding `COc1ccc(/C=N\N2C(=O)Cc3ccccc32)cc1`, the GI50 in the assay with U-251 is 48.4 µM (inactive); in the assay with NCI-H226, > 100 µM (inactive); with SF-539, 39 µM (inactive); with CAKI-1 it was > 100 µM (inactive); in the assay on UO-31, 39.3 µM (inactive); with SK-OV-3 it was > 100 µM (inactive). Besides, the GI50 with SW-620 was > 100 µM (inactive); in the assay with LOX IMVI, > 100 µM (inactive); in the assay with SK-MEL-5 it was > 100 µM (inactive); with HL-60, > 100 µM (inactive); in the assay on A498, > 100 µM (inactive); in the assay with HCT-15, > 100 µM. Further, the GI50 in the assay on HCC 2998 was 25.4 µM (inactive); in the assay on CCRF-CEM, > 100 µM (inactive).
Consider `N#CC(C(=O)/C(=N\Nc1nc(S)nn1N)C(C#N)c1ccc(Cl)cc1)c1ccc(Cl)cc1` (configuration not stated), for which the GI50 with U-251, with RXF 393, in the assay with NCI-H226, with SF-539, with CAKI-1 and with UO-31 was > 100 µM (inactive) throughout. Besides, the GI50 in the assay with SK-OV-3 was > 100 µM (inactive); with SW-620 it was > 100 µM (inactive); in the assay on LOX IMVI, > 100 µM (inactive); in the assay on A498 it was > 100 µM (inactive); in the assay with HCT-15 it was > 100 µM; in the assay on HCC 2998, > 100 µM (inactive).
